Laboratory results: ChEMBL document CHEMBL5108052, “Histone Deacetylase and Enhancer of Zeste Homologue 2 Dual Inhibitors Presenting a Synergistic Effect for the Treatment of Hematological Malignancies” (J Med Chem, 2022)

Columns and labels:
HCT-116 [1] = conditions: time 72 hrs
MDA-MB-231 [2] = conditions: time 72 hrs
SU-DHL10 [3] = conditions: time 72 hrs
HL-60 [4] = conditions: time 72 hrs
MV4-11 [5] = assay: cells; conditions: Homo sapiens, MV4-11, 72 h
MDA-MB-231 [6] = assay: cells; conditions: Homo sapiens, MDA-MB-231, 72 h
SU-DHL10 [7] = assay: cells; conditions: Homo sapiens, SU-DHL10, 72 h
[8] = Binding affinity to recombinant PRC2 complex (unknown origin) incubated for 90 seconds by surface plasmon resonance assay; design: species or system Homo sapiens
HL-60 [9] = assay: cells; conditions: Homo sapiens, HL-60, 72 h
HCT-116 [10] = assay: cells; conditions: Homo sapiens, HCT-116, 72 h
MV4-11 [11] = conditions: time 72 hrs
Homo sapiens = species on record: Homo sapiens; conditions: time 90.0 sec
MV4-11 [12] = assay: animal or person; type: functional, Homo sapiens; conditions: Mus musculus, MV4-11, 480 h, route ip, time 20 day, read-out: TGI
[13] = Binding affinity to recombinant PRC2 complex (unknown origin) assessed as dissociation rate constant incubated for 90 seconds by surface plasmon resonance assay; design: species or system Homo sapiens
Histone deacetylase 1 = Histone deacetylase 1 (Homo sapiens, UniProt Q13547); assay: Inhibition of HDAC1 (unknown origin) preincubated for 5 mins followed by substrate addition and measured after 30 mins by multimode microplate reader analysis
Chain of Histone deacetylase 1 (Q13547 whole entry): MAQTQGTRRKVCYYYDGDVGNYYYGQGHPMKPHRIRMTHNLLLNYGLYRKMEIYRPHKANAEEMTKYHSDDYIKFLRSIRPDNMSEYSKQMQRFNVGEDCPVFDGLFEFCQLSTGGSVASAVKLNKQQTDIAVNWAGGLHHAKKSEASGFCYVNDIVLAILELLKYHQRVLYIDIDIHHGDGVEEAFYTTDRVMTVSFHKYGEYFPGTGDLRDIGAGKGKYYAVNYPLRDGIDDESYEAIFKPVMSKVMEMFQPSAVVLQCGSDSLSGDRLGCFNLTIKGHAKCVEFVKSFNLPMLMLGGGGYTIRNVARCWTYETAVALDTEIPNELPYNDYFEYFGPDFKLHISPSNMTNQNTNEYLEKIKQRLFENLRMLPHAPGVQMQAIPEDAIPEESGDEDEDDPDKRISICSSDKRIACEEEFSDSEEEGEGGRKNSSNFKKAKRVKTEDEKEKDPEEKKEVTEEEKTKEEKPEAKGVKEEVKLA

[14] = target: T1, Protein deacetylase HDAC6 (Homo sapiens, UniProt Q9UBN7); assay: Inhibition of HDAC6 (unknown origin) preincubated for 5 mins followed by substrate addition and measured after 30 mins by multimode microplate reader analysis
T1 sequence (Q9UBN7 whole entry): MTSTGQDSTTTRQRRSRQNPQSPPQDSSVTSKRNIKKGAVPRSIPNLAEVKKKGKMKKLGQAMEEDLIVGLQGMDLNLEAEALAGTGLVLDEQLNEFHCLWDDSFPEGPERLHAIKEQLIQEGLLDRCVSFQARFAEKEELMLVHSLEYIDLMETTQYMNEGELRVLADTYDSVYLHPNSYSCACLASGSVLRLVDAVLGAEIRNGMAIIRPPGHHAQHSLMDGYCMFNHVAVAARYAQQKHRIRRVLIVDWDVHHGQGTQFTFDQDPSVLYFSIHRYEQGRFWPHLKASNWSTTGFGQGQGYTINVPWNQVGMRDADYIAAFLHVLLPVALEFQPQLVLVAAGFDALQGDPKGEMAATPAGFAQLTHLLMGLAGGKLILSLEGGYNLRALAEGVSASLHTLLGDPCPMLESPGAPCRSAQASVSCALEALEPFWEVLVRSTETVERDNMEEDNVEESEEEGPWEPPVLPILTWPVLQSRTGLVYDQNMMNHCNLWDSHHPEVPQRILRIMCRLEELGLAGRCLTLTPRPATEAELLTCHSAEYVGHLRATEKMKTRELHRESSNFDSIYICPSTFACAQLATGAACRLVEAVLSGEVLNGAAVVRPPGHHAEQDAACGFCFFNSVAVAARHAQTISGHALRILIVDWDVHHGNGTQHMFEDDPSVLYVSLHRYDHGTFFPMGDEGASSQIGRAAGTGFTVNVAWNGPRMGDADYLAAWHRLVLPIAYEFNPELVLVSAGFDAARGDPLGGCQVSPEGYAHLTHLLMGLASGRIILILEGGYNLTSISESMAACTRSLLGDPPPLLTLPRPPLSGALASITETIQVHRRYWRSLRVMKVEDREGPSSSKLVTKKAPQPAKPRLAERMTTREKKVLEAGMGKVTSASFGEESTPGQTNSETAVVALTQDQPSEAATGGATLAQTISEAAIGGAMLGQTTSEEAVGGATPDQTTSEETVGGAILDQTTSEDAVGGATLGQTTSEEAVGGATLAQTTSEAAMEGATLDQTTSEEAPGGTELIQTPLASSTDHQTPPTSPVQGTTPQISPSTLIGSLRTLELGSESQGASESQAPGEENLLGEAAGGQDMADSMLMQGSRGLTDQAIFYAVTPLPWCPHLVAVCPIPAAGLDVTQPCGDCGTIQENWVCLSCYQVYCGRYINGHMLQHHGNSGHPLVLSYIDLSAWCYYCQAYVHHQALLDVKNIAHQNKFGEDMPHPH

[15] = Metabolic stability in human liver microsomes assessed as half life measured after 5 mins in presence of NADPH and UDPGA by LC-MS/MS analysis; type: ADME, Microsome

Row | SMILES | IC50 (MV4-11 [5]) | IC50 (MDA-MB-231 [6]) | IC50 (SU-DHL10 [7]) | Kd [8] | IC50 (HL-60 [9]) | IC50 (HCT-116 [10]) | Ka (Homo sapiens) | koff [13] | IC50 (Histone deacetylase 1; time 35.0 min) | IC50 [14] | half-life [15] | IC50 (Histone deacetylase 1) | CI (HCT-116 [1]) | CI (MDA-MB-231 [2]) | CI (SU-DHL10 [3]) | CI (HL-60 [4]) | CI (MV4-11 [11]) | inhibition in vivo at 100 mg/kg (MV4-11 [12])
1 | CC[C@@H](C)n1cc(C)c2c(C(=O)NCc3c(C)cc(C)[nH]c3=O)cc(-c3ccc(N4CCNCC4)nc3)cc21 | 5150 nM | 15200 nM | 7220 nM | 73 nM | 12000 nM | 8860 nM | 2.52 10^4/M/s | – | – | – | – | – | 0.91 | 1.2 | 0.8 | 0.65 | 0.38 | 52.7%
2 | C=C(CCCCCNc1cc(-c2ccc(N3CCN(C(=O)OC(C)(C)C)CC3)nc2)cc(C(=O)NCc2c(C)cc(C)[nH]c2=O)c1C)NO | 17700 nM | > 20000 nM | 12900 nM | 280 nM | 17800 nM | > 20000 nM | – | 0.16 s⁻¹ | 5820 nM | 1230 nM | – | – | – | – | – | – | – | –
3 | Cc1cc(C)c(CNC(=O)c2cc(-c3ccc(N4CCN(c5ncc(C(=O)Nc6ccccc6N)cn5)CC4)nc3)cc3c2cnn3C(C)C)c(=O)[nH]1 | – | – | – | – | – | – | – | – | – | – | 17.7 min | – | – | – | – | – | – | –
4 | Cc1cc(C)c(CNC(=O)c2cc(-c3ccc(N4CCN(C(=O)OC(C)(C)C)CC4)nc3)cc(NCCCCCCCC(=O)NO)c2C)c(=O)[nH]1 | 4750 nM | 6830 nM | 1520 nM | 1370 nM | 2050 nM | 5110 nM | – | 0.099 s⁻¹ | 2050 nM | 1950 nM | – | – | – | – | – | – | – | –

Further lines, with some results ahead:

Row | IC50 (MV4-11 [5]) | IC50 (MDA-MB-231 [6]) | IC50 (SU-DHL10 [7]) | Kd [8] | IC50 (HL-60 [9]) | IC50 (HCT-116 [10]) | Ka (Homo sapiens) | koff [13] | IC50 (Histone deacetylase 1; time 35.0 min) | IC50 [14] | half-life [15] | IC50 (Histone deacetylase 1) | SMILES | CI (HCT-116 [1]) | CI (MDA-MB-231 [2]) | CI (SU-DHL10 [3]) | CI (HL-60 [4]) | CI (MV4-11 [11]) | inhibition in vivo at 100 mg/kg (MV4-11 [12])
5 | 11100 nM | > 20000 nM | > 20000 nM | 21 nM | > 20000 nM | > 20000 nM | – | – | – | – | – | – | Cc1cc(C)c(CNC(=O)c2cc(-c3ccc(N4CCN(C(C)C)CC4)nc3)cc3c2cnn3C(C)C)c(=O)[nH]1 | 0.89 | 1.6 | 0.78 | 0.77 | 0.43 | –
6 | 570 nM | 5180 nM | 1220 nM | 97 nM | 1220 nM | 2240 nM | – | 0.044 s⁻¹ | – | 390 nM | – | 700 nM | Cc1cc(C)c(CNC(=O)c2cc(-c3ccc(N4CCN(CCCCCCCCC(=O)NO)CC4)nc3)cc3c2cnn3C(C)C)c(=O)[nH]1 | – | – | – | – | – | –
7 | 1150 nM | 8740 nM | 1730 nM | 84 nM | 8410 nM | 7040 nM | – | 0.023 s⁻¹ | – | 82 nM | – | 940 nM | Cc1cc(C)c(CNC(=O)c2cc(-c3ccc(N4CCN(C(=O)CCCCCCC(=O)NO)CC4)nc3)cc3c2cnn3C(C)C)c(=O)[nH]1 | – | – | – | – | – | –
